Experimental data from US9174992B2, “Heterobicyclic compounds” (Amgen Inc., priority 2012, dated 2015).

biological target: PDE10A (UniProt Q9Y233); test: PDE10 enzyme inhibition, IMAP TR-FRET assay (Example A, MPDE10A7 Enzyme Activity and Inhibition); assay type: biochemical; details: approximate IC50 value, Table 10
Outline: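 Compounds were preincubated 60 min at room temperature with PDE10A enzyme or tissue homogenate, then fluorescein-labeled cAMP or cGMP was added for 90 min. After stopping with IMAP binding reagents, TR-FRET was read and IC50s were fitted with a four-parameter logistic equation.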

Compound | IC50 [nM]
CC1(C)C(=O)N([C@H]2C[C@H](Nc3nc4c(F)cc(F)cc4s3)C2)c2nccnc21 [Example 170, 5-(trans-3-((4,6-difluorobenzo[d]thiazole-2-yl)amino)cyclobutyl)-7,7-dimethyl-5H-pyrrolo-[2,3-b]pyrazin-6(714)-one] | 2.71
COc1ccc2nc(N[C@H]3C[C@H](N4C(=O)C(C)(C)c5nccnc54)C3)sc2c1 [Example 171, 5-(trans-3-((6-methoxybenzo[d]thiazole-2-yl)amino)cyclobutyl)-7,7-dimethyl-5H-pyrrolo[2,3-b]pyrazin-6(7 H)-one] | 4.16
Cn1c(=O)n([C@H]2C[C@H](Nc3nc4cccnc4s3)C2)c2ncccc21 [Example 172, 1-methyl-3-(trans-3-(thiazolo[-5,4-b]pyridin-2-ylamino)cyclobutyl)-1H-imidazo[4,5-b]pyridin-2(3 H)-one] | 2.15
CC1(C)C(=O)N([C@H]2C[C@H](Nc3nc4cccnc4s3)C2)c2nccnc21 [Example 173, 7,7-dimethyl-5-(trans-3-(thiazolo[5,4-b]pyridin-2-ylamino)cyclobutyl)-5H-pyrrolo[2,3-b]pyrazin-6(7H)-one] | 1.49
O=c1n(C2CC2)c2nccnc2n1[C@H]1C[C@H](Nc2ncc3ccc(F)cc3n2)C1 [Example 174] | 0.896
CC1(C)C(=O)N([C@H]2C[C@H](Nc3ncc4ccc(F)cc4n3)C2)c2nccnc21 [Example 175, 5-(trans-3-((7-fluoroquinazolin-2-yl)amino)cyclobutyl)-7,7-dimethyl-5H-pyrrolo[2,3-b]lpyrazin-6(7 H)-one] | 18.4
O=c1n(C2CC2)c2nccnc2n1[C@H]1C[C@H](Nc2nc3ccc(F)cc3o2)C1 [Example 176, 1-cyclopropyl-3-(trans-3-((6-fluorobenzo[d]oxazol-2-yl)amino)cyclobutyl)-1H-imidazo[4,5-b]pyrazin-2(3 H)-one] | 7.75
CC1(C)C(=O)N([C@H]2C[C@H](Nc3nc4ccc(F)cc4o3)C2)c2nccnc21 [Example 177, 5-(trans-3-((6fluorobenzo[d]oxazol-2-yl)amino)cyclobutyl)-7,7-dimethyl-5H-pyrrolo[2,3-b]pyrazin-6(7 H)-one] | 2.82
O=c1n(C2CC2)c2nccnc2n1[C@H]1C[C@H](Nc2nc3cccnc3s2)C1 [Example 178, 1-cyclopropyl-3-(trans-3-(thiazolo[5,4-b]pyridin-2-ylamino)cyclobutyl)-1H-imidazo[4,5-b]pyrazin-2(3 H)-one] | 2.22
CC1(C)C(=O)N([C@H]2C[C@H](Nc3ncc4ccccc4n3)C2)c2nccnc21 [Example 179, 7,7-dimethyl-5-(trans-3-(quinazolin-2-ylamino)cyclobutyl)-5H-pyrrolo[2,3-b]pyrazin-6(7 H)-one] | 2.01
O=C1COc2cccnc2N1[C@H]1C[C@H](Nc2nc3ccccc3s2)C1 [Example 182, 4-(trans-3-(benzo[d]thiazol-2-ylamino)cyclobutyl)-2H-pyrido[3,2-b][1,4]oxazin-3(4H)-one] | > 9750
O=c1n(C2CC2)c2cccnc2n1[C@H]1C[C@H](Nc2ncc3ccccc3n2)C1 [Example 184, 1-cyclopropyl-3-(trans-3-(quinazolin-2-ylamino)cyclobutyl)-1H-imidazo[4,5-b]pyridin-2(3H)-one] | 34.7
O=c1n(C2CC2)c2cccnc2n1[C@H]1C[C@H](Nc2nc3cc(F)ccc3s2)C1 [Example 185, 1-cyclopropyl-3-(trans-3-((5-fluorobenzo[d]thiazol-2-yl)amino)cyclobutyl)-1H-imidazo[4,5-b]pyridin-2(3H)-one] | 0.839
O=c1n(C2CC2)c2cccnc2n1[C@H]1C[C@H](Nc2nc3ccc(F)cc3s2)C1 [Example 186, 1-cyclopropyl-3-(trans-3-((6-fluorobenzo[d]thiazol-2-yl)amino)cyclobutyl)-1H-imidazo[4,5-b]pyridin-2(3H)-one] | 0.669
CC1(C)C(=O)N(C2CC(Nc3ccc4ccccc4n3)C2)c2nccnc21 (stereo not shown) [Example 187, 7,7-dimethyl-5-(3-(quinolin-2-ylamino)cyclobutyl)-5H-pyrrolo[2,3-b]pyrazin-6(7 H)-one] | 1.06
CC1(C)C(=O)N(C2CCN(c3ncc4ccccc4n3)CC2)c2ncccc21 [Example 188, 3,3-dimethyl-1-(1-(quinazolin-2-yl)piperidin-4-yl)-1H-pyrrolo[2,3-b]pyridin-2(3 H)-one] | 0.127
CC1(C)C(=O)N(C2CCN(c3nc4ccccc4s3)CC2)c2ncccc21 [Example 189, 1-(1-(benzo[d]thiazol-2-yl)piperidin-4-yl)-3,3-dimethyl-1H-pyrrolo[2,3-b]pyridin-2(3 H)-one] | 1.99
CC1(C)C(=O)N(C2CCN(c3ccc4ccccc4n3)CC2)c2ncccc21 [Example 190, 3,3-dimethyl-1-(1-(quinolin-2-yl)piperidin-4-yl)-1H-pyrrolo[2,3-b]pyridin-2(3 H)-one] | 0.695
CC1(C)C(=O)N(C2CCN(c3nc4ccc(F)cc4s3)CC2)c2ncccc21 [Example 191, 1-(1-(6-fluorobenzo[d]thiazol-2-yl)piperidin-4-yl)-3,3-dimethyl-1H-pyrrolo[2,3-b]pyridin-2(3 H)-one] | 3.46
CC1(C)C(=O)N([C@H]2C[C@H](Nc3ccc4cc(F)ccc4n3)C2)c2nccnc21 [Example 192] | 14.8
CC1(C)C(=O)N(C2CCN(c3ccc4ccc(F)cc4n3)CC2)c2ncccc21 [Example 193, 1-(1-(7-fluoroquinolin-2-yl)piperidin-4-yl)-3,3-dimethyl-1H-pyrrolo[2,3-b]pyridin-2(3 H)-one] | 2.1
CC1(C)C(=O)N(C2CCN(c3ccc4cc(F)ccc4n3)CC2)c2ncccc21 [Example 194, 1-(1-(6-fluoroquinolin-2-yl)piperidin-4-yl)-3,3-dimethyl-1H-pyrrolo[2,3-b]pyridin-2(3 H)-one] | 15.1
CC1(C)C(=O)Nc2nc([C@H]3C[C@H](Nc4ccc5ccc(F)cc5n4)C3)cnc21 [Example 195, 3-(trans-3-((7-fluoroquinolin-2-yl)amino)cyclobutyl)-7,7-dimethyl-5H-pyrrolo[2,3-b]pyrazin-6(7 H)-one] | 0.938
Cn1c(=O)n([C@H]2C[C@H](Nc3nc4ccccc4o3)C2)c2ncc(F)cc21 [Example 196, 3-(Trans-3-(benzo[d]oxazol-2-ylamino)cyclobutyl)-6-fluoro-1-methyl-1H-imidazo[4,5-b]pyridin-2(3 H)-one] | 4.2

Results, then the compound that gave them:

IC50 [nM] | Compound
1.77 | CC1(C)C(=O)N([C@H]2C[C@H](Oc3nc4ccccc4s3)C2)c2nccnc21 [Example 197, 5-(trans-3-(benzo[d]thiazol-2-yloxy)cyclobutyl)-7,7-dimethyl-5H-pyrrolo[2,3-b]pyrazin-6(7H)-one]
2.36 | CC1(C)C(=O)N(C2CCN(c3nc4ccccc4s3)CC2)c2nccnc21 [Example 198, 5-(1-(benzo[d]thiazol-2-yl)piperidin-4-yl)-7,7-dimethyl-5H-pyrrolo[2,3-b]pyrazin-6(7H)-one]
15.1 | CC1(C)C(=O)N(C2CCN(c3ccc4cc(F)ccc4n3)CC2)c2nccnc21 [Example 199, 5-(1-(6-fluoroquinolin-2-yl)piperidin-4-yl)-7,7-dimethyl-5H-pyrrolo[2,3-b]pyrazin-6(7H)-one]
86.3 | CC1(C)C(=O)N(C2CCN(c3ncc4ccc(Cl)cc4n3)CC2)c2nccnc21 [Example 200, 5-(1-(7-chloroquinazolin-2-yl)piperidin-4-yl)-7,7-dimethyl-5H-pyrrolo[2,3-b]pyrazin-6(7H)-one]
3.48 | CC1(C)C(=O)N(C2CCN(c3ncc4cc(F)ccc4n3)CC2)c2nccnc21 [Example 201, 5-(1-(6-fluoroquinazolin-2-yl)piperidin-4-yl)-7,7-dimethyl-5H-pyrrolo[2,3-b]pyrazin-6(7H)-one]
68.8 | CC1(C)C(=O)N(C2CCN(c3nc4ccc(C(F)(F)F)cc4s3)CC2)c2nccnc21 [Example 202, 7,7-dimethyl-5-(1-(6-(trifluoromethyl)benzo[d]thiazol-2-yl)piperidin-4-yl)-5H-pyrrolo[2,3-b]pyrazin-6(7H)-one]
109 | Cc1csc(N[C@H]2C[C@H](N3C(=O)C(C)(C)c4cccnc43)C2)n1 [Example 203, 3,3-dimethyl-1-(trans-3-((4-methylthiazol-2-yl)amino)cyclobutyl)-1H-pyrrolo[2,3-b]pyridin-2(3H)-one]
2910 | CC1(C)C(=O)N([C@H]2C[C@H](Nc3ncc(-c4ccccc4)s3)C2)c2ncccc21 [Example 204, 3,3-dimethyl-1-(trans-3-((5-phenylthiazol-2-yl)amino)cyclobutyl)-1H-pyrrolo[2,3-b]pyridin-2(3H)-one]
13.2 | Cc1cnc(N[C@H]2C[C@H](N3C(=O)C(C)(C)c4cccnc43)C2)s1 [Example 205, 3,3-dimethyl-1-(trans-3-((5-methylthiazol-2-yl)amino)cyclobutyl)-1H-pyrrolo[2,3-b]pyridin-2(3H)-one]
7.65 | Cn1c(=O)n([C@H]2C[C@H](Nc3ncc4ccccc4n3)C2)c2ncc(F)cc21 [Example 206, 6-fluoro-1-methyl-3-(trans-3-(quinazolin-2-ylamino)cyclobutyl)-1H-imidazo[4,5-b]pyridin-2(3H)-one]
2.39 | CC1(C)C(=O)N([C@H]2C[C@H](Nc3ccc(Br)cn3)C2)c2nccnc21 [Example 207, 5-(trans-3-((5-bromopyridin-2-yl)amino)cyclobutyl)-7,7-dimethyl-5H-pyrrolo[2,3-b]pyrazin-6(7 H)-one]
0.626 | O=C1N([C@H]2C[C@H](Nc3nc4ccccc4s3)C2)c2ncc(F)cc2C1(F)F [Example 208, 1-(trans-3-(benzo[d]thiazol-2-ylamino)cyclobutyl)-3,3,5-trifluoro-1H-pyrrolo[2,3-b]pyridin-2(3H)-one]
0.88 | Cn1c(=O)n([C@H]2C[C@H](Nc3nc4ccc(F)cc4s3)C2)c2ncc(F)cc21 [Example 209, 6-fluoro-3-(trans-3-((6-fluorobenzo[d]thiazol-2-yl)amino)cyclobutyl)-1-methyl-1H-imidazo[4,5-b]pyridin-2(3H)-one]
